In brackets after ≈: the same amount, converted by molar mass. Like-named read-outs stand apart in the source and are kept apart here. Blank lines part the entries; values can stand above or below the compound they belong to.
Columns and labels:
[1] = system: S. aureus strains (14 mecC MRSA, 2 mecA MRSA, ATCC 29213 MSSA); assay: Broth microdilution MIC determination; assay type: cell-based, Staphylococcus aureus; conditions: Staphylococcus aureus; for MIC: read-out: MIC; for MIC90: mecC strains, read-out: MIC90
Protocol: The S. aureus (SA) strains used in this study were: ATCC 43300 (mecA methicillin-resistant SA [MRSA]); ATCC 33591 (mecA MRSA), ATCC 29213 (methicillin-susceptible SA; quality control strain) and 14 mecC MRSA obtained from the Staten Serum Institute (Copenhagen, Denmark).
Tests with oritavancin included polysorbate-80 (final test concentration of 0.002%) as described (CLSI 2012a; Arhin et al., 2008). Tests with daptomycin included CaCl2 at a concentration of 50 mg/L. MICs were read after 24 h incubation.

[2] = system: S. aureus strains (14 mecC MRSA, 2 mecA MRSA, ATCC 29213 MSSA); assay: In vitro time-kill assays at free peak and free trough concentrations; assay type: cell-based, Staphylococcus aureus; conditions: for Time to cidality (≧3 log decrease): daptomycin ƒCmax 4 mg/L; for Change in cell density at 24 h relative to starting inoculum: daptomycin ƒCmin 0.5 mg/L
Protocol: Viable cell count was determined by serial dilution plating, including the use of 25 g/L charcoal suspension to limit antibiotic carryover. […] Time-kill assays were repeated at least twice independently; results presented are from a representative experiment.
Doubling dilution concentrations of comparator agents were likewise chosen to approximate their fCmax and fCmin levels in plasma when administered at approved dosages for complicated skin and skin structure infections, using pharmacokinetic data and protein binding values from their respective package inserts (DAP [Cubicin®]; LZD [Zyvox®]; VAN [Vancocin®]; Table 3).

[3] = ATCC 29213 / ATCC 33591 / MRSA / MSSA, ATCC 33591 MRSA (mecA)
[4] = ATCC 29213 / ATCC 43300 / MRSA / MSSA, ATCC 43300 MRSA (mecA)

MIC ([1]; 57147 MRSA (mecC)): 0.5 µg/mL (≈ 0.309 µM) | MIC ([1]; 70611 MRSA (mecC)): 0.5 µg/mL (≈ 0.309 µM) | MIC ([1]; 73348 MRSA (mecC)): 0.5 µg/mL (≈ 0.309 µM) | MIC ([1]; 73415 MRSA (mecC)): 1 µg/mL (≈ 0.617 µM) | MIC ([1]; 73617 MRSA (mecC)): 1 µg/mL (≈ 0.617 µM) | MIC ([1]; 73829 MRSA (mecC)): 0.5 µg/mL (≈ 0.309 µM) | MIC ([1]; 75814 MRSA (mecC)): 0.5 µg/mL (≈ 0.309 µM) | MIC ([1]; 76918 MRSA (mecC)): 0.5 µg/mL (≈ 0.309 µM) | MIC ([1]; 77431 MRSA (mecC)): 1 µg/mL (≈ 0.617 µM) | MIC ([1]; 77601 MRSA (mecC)): 0.5 µg/mL (≈ 0.309 µM) | MIC ([1]; 77950 MRSA (mecC)): 0.5 µg/mL (≈ 0.309 µM) | MIC ([1]; 77964 MRSA (mecC)): 0.5 µg/mL (≈ 0.309 µM) | MIC ([1]; 78085 MRSA (mecC)): 1 µg/mL (≈ 0.617 µM) | MIC ([1]; 78651 MRSA (mecC)): 0.5 µg/mL (≈ 0.309 µM) | MIC ([1]; ATCC 29213 (MSSA)): 0.5 µg/mL (≈ 0.309 µM) | MIC [1, 3]: 1 µg/mL (≈ 0.617 µM) | MIC [1, 4]: 0.5 µg/mL (≈ 0.309 µM) | MIC ([1]; all strains tested): 0.5 to 1 µg/mL (≈ 0.309 to 0.617 µM) | MIC90 [1]: 1 µg/mL (≈ 0.617 µM)
Compound: CCCCCCCCCC(=O)N[C@@H](Cc1c[nH]c2ccccc12)C(=O)N[C@H](CC(N)=O)C(=O)N[C@@H](CC(=O)O)C(=O)N[C@@H]1C(=O)NCC(=O)N[C@@H](CCCN)C(=O)N[C@@H](CC(=O)O)C(=O)N[C@H](C)C(=O)N[C@@H](CC(=O)O)C(=O)NCC(=O)N[C@H](CO)C(=O)N[C@@H]([C@H](C)CC(=O)O)C(=O)N[C@@H](CC(=O)c2ccccc2N)C(=O)O[C@@H]1C [Daptomycin, daptomycin]
Time to cidality (≧3 log decrease) ([2]; 57147 (mecC)): 1-2 h | Change in cell density at 24 h relative to starting inoculum ([2]; 57147 (mecC)): +2.7 log CFU/mL | Time to cidality (≧3 log decrease) ([2]; 70611 (mecC)): 1-2 h | Change in cell density at 24 h relative to starting inoculum ([2]; 70611 (mecC)): +1.5 log CFU/mL | Change in cell density at 24 h relative to starting inoculum ([2]; 73348 (mecC)): +2.6 log CFU/mL | Time to cidality (≧3 log decrease) ([2]; 73415 (mecC)): 2-4 h | Change in cell density at 24 h relative to starting inoculum ([2]; 73415 (mecC)): +1.5 log CFU/mL | Time to cidality (≧3 log decrease) ([2]; 73617 (mecC)): 1-2 h | Change in cell density at 24 h relative to starting inoculum ([2]; 73617 (mecC)): +3.4 log CFU/mL | Time to cidality (≧3 log decrease) ([2]; 73829 (mecC)): 1-2 h | Change in cell density at 24 h relative to starting inoculum ([2]; 73829 (mecC)): +2.1 log CFU/mL | Time to cidality (≧3 log decrease) ([2]; 75814 (mecC)): 1-2 h | Change in cell density at 24 h relative to starting inoculum ([2]; 75814 (mecC)): +3.6 log CFU/mL | Time to cidality (≧3 log decrease) ([2]; 76918 (mecC)): 1-2 h | Change in cell density at 24 h relative to starting inoculum ([2]; 76918 (mecC)): +1.5 log CFU/mL | Time to cidality (≧3 log decrease) ([2]; 77431 (mecC)): 1-2 h | Change in cell density at 24 h relative to starting inoculum ([2]; 77431 (mecC)): +1.9 log CFU/mL | Change in cell density at 24 h relative to starting inoculum ([2]; 77601 (mecC)): +0.1 log CFU/mL | Time to cidality (≧3 log decrease) ([2]; 77950 (mecC)): 1-2 h | Change in cell density at 24 h relative to starting inoculum ([2]; 77950 (mecC)): +0.9 log CFU/mL | Time to cidality (≧3 log decrease) ([2]; 77964 (mecC)): 1-2 h | Change in cell density at 24 h relative to starting inoculum ([2]; 77964 (mecC)): +1.2 log CFU/mL | Time to cidality (≧3 log decrease) ([2]; 78085 (mecC)): 2-4 h | Change in cell density at 24 h relative to starting inoculum ([2]; 78085 (mecC)): +1.5 log CFU/mL | Change in cell density at 24 h relative to starting inoculum ([2]; 78651 (mecC)): +1.6 log CFU/mL | Time to cidality (≧3 log decrease) ([2]; ATCC 29213 (MSSA)): 2-4 h | Change in cell density at 24 h relative to starting inoculum ([2]; ATCC 29213 (MSSA)): +3.9 log CFU/mL | Change in cell density at 24 h relative to starting inoculum ([2]; ATCC 33591 (mecA)): +3.8 log CFU/mL | Time to cidality (≧3 log decrease) ([2]; ATCC 43300 (mecA)): 1-2 h | Change in cell density at 24 h relative to starting inoculum ([2]; ATCC 43300 (mecA)): +3.6 log CFU/mL | Activity in time-kill assay ([2]; S. aureus strains, fCmin): little to no effect or was bacteriostatic

MIC ([1]; 57147 MRSA (mecC)): 2 µg/mL (≈ 5.93 µM) | MIC ([1]; 70611 MRSA (mecC)): 2 µg/mL (≈ 5.93 µM) | MIC ([1]; 73348 MRSA (mecC)): 2 µg/mL (≈ 5.93 µM) | MIC ([1]; 73415 MRSA (mecC)): 2 µg/mL (≈ 5.93 µM) | MIC ([1]; 73617 MRSA (mecC)): 2 µg/mL (≈ 5.93 µM) | MIC ([1]; 73829 MRSA (mecC)): 2 µg/mL (≈ 5.93 µM) | MIC ([1]; 75814 MRSA (mecC)): 2 µg/mL (≈ 5.93 µM) | MIC ([1]; 76918 MRSA (mecC)): 2 µg/mL (≈ 5.93 µM) | MIC ([1]; 77431 MRSA (mecC)): 2 µg/mL (≈ 5.93 µM) | MIC ([1]; 77601 MRSA (mecC)): 2 µg/mL (≈ 5.93 µM) | MIC ([1]; 77950 MRSA (mecC)): 2 µg/mL (≈ 5.93 µM) | MIC ([1]; 77964 MRSA (mecC)): 2 µg/mL (≈ 5.93 µM) | MIC ([1]; 78085 MRSA (mecC)): 2 µg/mL (≈ 5.93 µM) | MIC ([1]; 78651 MRSA (mecC)): 2 µg/mL (≈ 5.93 µM) | MIC ([1]; ATCC 29213 (MSSA)): 2 µg/mL (≈ 5.93 µM) | MIC [1, 3]: 2 µg/mL (≈ 5.93 µM) | MIC [1, 4]: 1 µg/mL (≈ 2.96 µM) | MIC ([1]; all strains tested): 1 to 2 µg/mL (≈ 2.96 to 5.93 µM) | MIC90 [1]: 2 µg/mL (≈ 5.93 µM)
Compound: CC(=O)NC[C@H]1CN(c2ccc(N3CCOCC3)c(F)c2)C(=O)O1 [Linezolid, linezolid]
Activity in time-kill assay ([2]; all tested strains, both fCmin and fCmax): little to no effect or was bacteriostatic

Reference: patent publication US20160101148A1, “TREATMENT AND PREVENTION OF BACTERIAL SKIN INFECTIONS USING ORITAVANCIN” (priority 2013, published 2016)
